Test results published in patent US7173021B2, “Synthesis of temozolomide esters as potent anticancer pro-drugs for topical and transdermal applications in treatments of cancers” (Tianjin North Pharm Sci-Tech Co., Ltd., priority 2004, dated 2007).
In brackets after ≈: the same amount, converted by molar mass.

Columns and labels:
MCF-7 (human breast) = experiment: In vitro tumour cell growth inhibition (MTT), MCF-7; assay type: cell-based; settings: MCF7, Table 1 experiment, 96 h
Method: (§1) Temozolomide (white powder), temozolomide acid (white powder) and temozolomide-8-carboxylate hexyl (white scale crystal) were made in house. For the estimation of in vitro tumour cell growth inhibition, MV3 (human melanoma), M14 (human melanoma), B16 and B16-BL6 (mouse melanoma), SHG-44, TJ899 and TJ905 (human glioma), MCF-7 (human breast), HCT-8 (human colon), A549 (human non small lung), Bel7402 (human hepatocellulor), and BGC-823 (human stomach) were used. All tumour cells were cultured in RPMI-1640 medium supplemented with 10% fetal bovine serum (FBS) at 37° C. in a humidified 5% CO2 incubator.
(§2) After being harvested from culture flasks, a cell suspension of 1×10^4/ml was made by using 1640 RPMI medium supplemented with 10% fetal bovine serum. 100 μl (contains 1000 tumour cells) of the cell suspension was seeded per well of 96-well flat-bottom Costar culture plates at 37° C. in a humidified 5% CO2 incubator for 24 hrs before introducing drugs. Each tested compounds was made for five different concentrations and 100 μl of the each concentration was introduced into parallel three wells; control wells were added with 100 μl of plain medium alone; fluorouracil (a chemotherapeutic antitumour drug) was used as the positive control. Cells were then incubated for 96 h. Proliferative response and cell death were determined using MTT (3-(4,5-dimethylthiazolyl)-2,5-diphenyl-tetrazolium bromide) assay.
(§3) MTT assay: Following incubation of cells with the tested compounds for 96 h, 100 μl of 0.4 mg/ml MTT in RPMI 1640 was added to each well and the plate was incubated at 37° C. for 4 h. The plate was then centrifuged and followed by removal of medium. 150 μl of DMSO was then added to dissolve formazan crystal. DMSO-added plates were placed on a plate shaker for 5 min and absorbance was measured spectrophotometrically at 540 nm (with reference wavelength at 450 nm) using a Benchmark microtiter plate reader (Bio-Rad 550, Bio-Rad Laboratories, CA, U.S.A.).
The IC50 was calculated from the curve of the tested compound concentrations against the inhibition rate of the tumour cells. […]

SHG-44 (human glioma) = experiment: In vitro tumour cell growth inhibition (MTT), SHG-44; assay type: cell-based; settings: Homo sapiens, SHG-44, Table 2 experiment, 96 h
Method: as §1, §2, §3
The IC50 was calculated from the curve of the tested compound concentrations against the inhibition rate of the tumour cells. Table 1 summarized the experiment results by using six human cancer cell lines, HCT-8 (colon carcinoma), A549 (non small lung carcinoma), MCF-7 (breast), Bel7402 (hepatocellulor carcinoma), BGC-823 (stomach adenocarcinoma), and MV3 (melanoma). Table 2 summarized the results from the experiment results by using two human melanoma cell lines, MV3 and M14, two mouse melanoma cell lines, B16 and B16-BL6, and three human glioma cell lines, TJ899, SHG-44 and TJ905.

[1] = In vitro permeation and metabolism, Franz diffusion cell, full-thickness rat skin; assay type: in vitro ADME; settings: 37° C., 8 h, FIGS. 6-8
Description: Jacketed Franz-type diffusion cells were used throughout the study and the barrier (12) (skin or silicone membrane) was mounted between the two chambers (14, 16) (2.8–3.4 cm^2 available surface area) with the dermal side in contact with the receiver solution (FIG. 2). The diffusion chambers (10) comprised a barrier of skin or silicone membrane (12) mounted between two chambers (14, 16). A cap (18) formed the donor compartment (14). The second receptor compartment (16) contained a receptor cell (20) with a stirring bar (22), sampling port (24) and cover (26). The stirring bar (22) was stirred by means of a magnet plate (28) having a rotating magnet. The receptor compartment comprised a water jacket (30) having a water inlet (32) and a water outlet (34).
Three types of materials were used in permeation studies. • 1. […]
The membrane (as detailed above) was mounted on the diffusion cell (10), on which the surface area available for diffusion of each cell was about 2.8–3.4 cm^2. […] The concentration of each sample solution was determined by using HPLC. […]
As stated above, after the removal of receptor solution, the receiver compartment was refilled with an identical volume of receptor fluid. […] As a consequence, it was necessary to mathematically correct each successive sample concentrations, in the present invention, which was determined by applying the following equation: […]

Question: Which results are given for CCCCCCOC(=O)c1ncn2c(=O)n(C)nnc12 [temozolomide hexyl ester, Hexyl 3,4-dihydro-3-methyl-4-oxoimidazo[5,1-d]-1,2,3,5-tetrazine-8-carboxylate]?
Answer: IC50 (MCF-7 (human breast)): 20 µg/mL (≈ 71.6 µM); IC50 (SHG-44 (human glioma)): 9.46 µg/mL (≈ 33.9 µM); Permeation through full-thickness rat skin (cumulative amount permeated %) [1]: maximum value
